# Like-named read-outs stand apart in the source and are kept apart here.
# Assays:
# [1] = tested on: 52-week-old male SDCD rats; assay: Chronic treatment per os of 52-week-old male SDCD rats (weight, insulinaemia, glycaemia, glucose tolerance, lipids); type: in vivo, rat; conditions: 14 days; for % weight change: 52-week-old male SDCD rats; for Basal insulinaemia % change / Cholesterol % change / Glucose tolerance K 10^-2 % change / Glycaemia % change / Triglyceride % change: vs control
# Method: A. Study of the Effect of a Chronic Treatment Administered Per OS to 52-Week-Old Male SDCD Rats The tests are carried out on rats that have weight anomalies associated with hyperinsulism and hyperglyceridaemia. on the one hand the effect of a prolonged treatment with the product of Example 1 and the reference substances on those anomalies, and In this experiment, adult male SPRAGUE DAWLEY rats were used in groups of 5 to 12 animals. […]
# a reduction in glucose tolerance, an increase in basal insulinaemia, and an increase in plasma lipids.
# The housing (from 9 to 52 weeks) of these rats was effected in a chamber at a temperature regulated at from 21° to 22° C. which was subjected to a fixed cycle of light (from 7.30 to 19.30 hours) and darkness (from 19.30 to 7.30 hours). Their food consisted of a maintenance diet (UAR A 03); water and food were supplied "ad libitum", with the exception of the night-fasting preceding the tests, when the food was removed.
# 9 days before the beginning of the experiment (d-9), the rats are divided into groups by randomisation based on weight.
# 5 days before the beginning of the experiment (d-5) the rats are conditioned by administering a gum solution.
# The first day of the experiment (d1), the products to be tested are administered to the rats at different doses twice per day. More precisely, the products are administered suspended in the gum between 9.00 and 10.00 hours and 16.00 and 17.00 hours for 14 days. The treated animals are weighed daily.
# On day 15 the rats (fasted for 18 hours) are sacrificed by decapitation. The blood is immediately collected in a cupule. An amount (50 μl ) is transferred into 500 μl of uranyl acetate for determining the glycaemia. An amount of 3 ml is transferred into a tube containing a solution of heparin (30 μl per 1 ml of whole blood) and centrifuged to separate the plasma. Another amount of 300 μl is transferred to a tube containing 15 μl of a solution of EDTA/NaF for determining the lactates.
# [2] = tested on: LDL (low-density lipoproteins); assay: In vitro LDL oxidation by copper; type: biochemical
# Method: (§1) A comparative study between the product of Example 1 and the reference substances (benfluorex, dimethyl biguanide) with respect to in vitro LDL oxidation was carried out.
# [3] = tested on: conscious dogs; assay: Hypotensive effect in conscious dogs (sphygmomanometer on the tail); type: in vivo; conditions: conscious dog, 5 mg/kg p.o., n = 4
# Method: The arterial pressure was measured by external pressure band (sphygmomanometer) on the tail of the dog, before and after treatment with the product of Example 1 at a dose of 5 mg/kg p.o..
# [4] = tested on: LDL (low-density lipoproteins); assay: In vitro LDL oxidation by monocytes; type: cell-based; conditions: for In vitro LDL oxidation by monocytes, activity: at 10^-4 M
# Method: as §1
# [5] = tested on: esters of cholesterol; assay: Incorporation of oleate in the esters of cholesterol; type: cell-based; conditions: for inhibition at 10 µM: read-out: Incorporation of oleate in the esters of cholesterol
SMILES,% weight change ([1]; 1 mg/kg x2 per day p.o.) [%],Basal insulinaemia % change ([1]; 1 mg/kg x2 per day p.o.) [%],Cholesterol % change ([1]; 1 mg/kg x2 per day p.o.) [%],Glucose tolerance K 10^-2 % change ([1]; 1 mg/kg x2 per day p.o.),Glycaemia % change ([1]; 1 mg/kg x2 per day p.o.),Triglyceride % change ([1]; 1 mg/kg x2 per day p.o.) [%],% weight change ([1]; 2.5 mg/kg x2 per day p.o.) [%],Basal insulinaemia % change ([1]; 2.5 mg/kg x2 per day p.o.) [%],Cholesterol % change ([1]; 2.5 mg/kg x2 per day p.o.) [%],Glucose tolerance K 10^-2 % change ([1]; 2.5 mg/kg x2 per day p.o.),Glycaemia % change ([1]; 2.5 mg/kg x2 per day p.o.) [%],Triglyceride % change ([1]; 2.5 mg/kg x2 per day p.o.) [%],"In vitro LDL oxidation by monocytes, activity [4]",also measured
"C[C@@H](Cc1cccc(C(F)(F)F)c1)NCCOC(=O)c1ccc(CCNC(=O)CC(c2ccccc2)c2ccccc2)cc1 [Example 1, (S)-1-(m-trifluoromethylphenyl)-2-{β-{4-[2-(N-(3,3-diphenylpropionyl)amino)ethyl]benzoyloxy}ethylamino}propane]",-1.4,-15,0,+23%,+8%,-10,-3,-26,0,+30%,0,-20,,"IC50 [2]: 50 µM; Decrease in arterial pressure, diastolic AP [3]: -20 to -27 mmHg; Decrease in arterial pressure, systolic AP [3]: -15 to -22 mmHg; IC50 ([4]; read-out: In vitro LDL oxidation by monocytes, IC50): 50 µM; inhibition at 10 µM [5]: 70%"
CC(Cc1cccc(C(F)(F)F)c1)NCCOC(=O)c1ccccc1 (stereo not shown) [Benfluorex],-2,-10,-20,+30%,-10%,-43,-6,-16,-30,+25%,-12,-44,inactive,"In vitro LDL oxidation by copper, activity ([2]; at 10^-4 M): inactive; inhibition at 10 µM ([5]; at 10^-5 M): 30%"
CN(C)C(=N)NC(=N)N [Dimethyl biguanide],,,,,,,,,,,,,inactive,Incorporation of oleate in the esters of cholesterol ([5]; at 10^-5 M): inactive
